Measured values taken from US20230398220A1, “SIRNA-NANOBOWL-MEDIATED INTERVENTION OF COVID-19” (THE REGENTS OF THE UNIVERSITY OF CALIFORNIA, priority 2020, published 2023).

System: HEK 298 cell line
Test: MTT viability of HEK cells treated with nanobowls pre-loaded with siRNA and dexamethasone
Conditions: normalized to untreated control

C[C@@H]1C[C@H]2[C@@H]3CCC4=CC(=O)C=C[C@]4(C)[C@@]3(F)[C@@H](O)C[C@]2(C)[C@@]1(O)C(=O)CO [dexamethasone]
cell viability (MTT): cell viability decreased
